Source: patent publication US10897901B2, “Herbicidal composition” (FMC Corporation, priority 2007, dated 2021)

Key:
Assay type in all cases: in vivo
[1] = tested on: Field Violet (Viola arvensis); test: Example 1 post-emergent turf plot test, violet; conditions: 0.57 lb ai/acre
Description: (§1) The experimental design used randomized plots with post-emergent treatment and three replications per test trial. The size of each experimental plot was 4 feet by 6 feet. The application of each test composition was performed with pressurized back-pack sprayers, calibrated to spray 200 gallons per acre. Test compositions containing sulfentrazone (DISMISS™ Turf Herbicide), quniclorac, (FACET® 75 DF herbicide) or a mixture of sulfentrazone and quinclorac in a 1:3 ratio, prepared as described above, were diluted with water to provide the appropriate test rate concentrations.
(§2) The control of weeds was evaluated in each experimental plot from 7 to 41 days after treatment (DAT) of each test rate. The results, shown as an average of the replications, were compared with results observed in untreated control plots in the same trials.

[2] = tested on: White Clover (Trifolium repens); test: Example 2 post-emergent turf plot test, clover; conditions: 0.57 lb ai/acre
Description: as §1, with “quinclorac,” for “quniclorac,”, “one to three” for “1:3”
The control of weeds was evaluated in each experimental plot from 1 to 27 days after treatment (DAT) of each test rate. The results, shown as an average of the replications, were compared with results observed in untreated control plots in the same trials.

[3] = tested on: White Clover (Trifolium repens); test: Example 1 post-emergent turf plot test, clover; conditions: 0.57 lb ai/acre
Description: as §1, §2

[4] = tested on: Hemp Sesbania (Sesbania exaltata); test: Example 4 post-emergence greenhouse pot test, hemp sesbania; conditions: 0.25 lb ai/acre
Description: Test compositions containing sulfentrazone (75 DF formulation), quniclorac, (DRIVE® 75 DF Herbicide) or mixtures of sulfentrazone and quinclorac at ratios of 1:1 to 1:5, were diluted with water to provide the appropriate test rate concentrations. A nonionic surfactant (0.25%) was added to each test solution. The test weeds include crabgrass (Digitaria sp), Chickweed (Stellaria media), Hemp Sesbania (Sesbania exaltata), Kochia (Kochia scoparia), Ivyleaf Morningglory (Ipomoea hederacea), Redroot Pigweed (Amaranthus retroflexus) and yellow nutsedge (Cyperus esculentusi).
(§3) For post-emergence testing, three disposable 3 inch square pots for each rate of application of each herbicide were filled with a soil, comprised of peat moss, vermiculite, bark ash, pine bark, limestone and a wetting agent, to which 8 to 10 seeds were planted. The pots were placed in a greenhouse and watered daily, thus allowing the seeds to germinate and the foliage to develop for 22 days, 3 months for Kochia.
(§4) Pots designated for treatment were placed on a conveyor belt and the conveyor belt fed under a spray nozzle mounted about ten inches above the foliage. The spray of herbicidal solution was commenced and once stabilized; the pots were passed under the spray at a speed to receive a coverage equivalent of 30 gallons per acre. The application rates are those shown in Table 4 below for the individual herbicidal solutions and the mixture of sulfentrazone and quinclorac. The post-emergence pots were immediately placed in the green-house and not watered until 24 hours after treatment with the test solution. Thereafter they were regularly watered at ground level. The control of weeds was evaluated in each experimental test from 2 to 20 days after treatment (DAT). The results, shown as an average of the replications, were compared with results observed in untreated control pots in the same tests.
(§5) Percent control was determined by a method similar to the 0 to 100 rating system disclosed in “Research Methods in Weed Science,” 2nd ed., B. Truelove, Ed.; Southern Weed Science Society; Auburn University, Auburn, Ala., 1977.

[5] = tested on: Red River crabgrass (Digitaria ciliaris); test: Example 3 post-emergence greenhouse pot test, crabgrass
Description: Test compositions containing sulfentrazone (DISMISS™ Turf Herbicide), quniclorac, (DRIVE® 75 DF Herbicide) or mixture of sulfentrazone and quinclorac in a three to one ratio, prepared as described above, were diluted with water to provide the appropriate test rate concentrations. A nonionic surfactant (0.25%) was added to each test solution.
The test weeds include Red River crabgrass (Digitaria ciliaris) and yellow nutsedge (Cyperus esculentusi).
as §3, with “develop.” for “develop for 22 days, 3 months for Kochia.”
as §4, with “Table 3” for “Table 4”, “from 1” for “from 2”, “to 22” for “to 20”
as §5

## Cc1nn(-c2cc(NS(C)(=O)=O)c(Cl)cc2Cl)c(=O)n1C(F)F [A, N-[2,4-dichloro-5-[4-(difluoromethyl)-4,5-dihydro-3-methyl-5-oxo-1H-1,2,4-triazol-1-yl]phenyl]methanesulfonamide]
[1]; 7 DAT
  Percent Control: 64%
[1]; 14 DAT
  Percent Control: 75%
[1]; 21 DAT
  Percent Control: 76%
[1]; 28 DAT
  Percent Control: 70%
[1]; 41 DAT
  Percent Control: 75%
[2]; 7 DAT
  Percent Control: 45%
[2]; 14 DAT
  Percent Control: 74%
[2]; 21 DAT
  Percent Control: 68%
[3]; 7 DAT
  Percent Control: 59%
[3]; 14 DAT
  Percent Control: 63%
[3]; 21 DAT
  Percent Control: 59%
[3]; 28 DAT
  Percent Control: 52%
[4]; 2 DAT
  Percent Control: 70%
[4]; 7 DAT
  Percent Control: 85%
[4]; 14 DAT
  Percent Control: 90%
[4]; 20 DAT
  Percent Control: 90%
[5]; 1-2 leaf stage, 11 days old, 0.125 lb ai/acre, 1 DAT
  Percent Control: 50%
[5]; 1-2 leaf stage, 11 days old, 0.125 lb ai/acre, 3 DAT
  Percent Control: 60%
[5]; 1-2 leaf stage, 11 days old, 0.125 lb ai/acre, 7 DAT
  Percent Control: 50%
[5]; 1-2 leaf stage, 11 days old, 0.125 lb ai/acre, 14 DAT
  Percent Control: 40%
[5]; 1-2 leaf stage, 11 days old, 0.125 lb ai/acre, 21 DAT
  Percent Control: 30%
[5]; 1-2 leaf stage, 11 days old, 0.25 lb ai/acre, 1 DAT
  Percent Control: 60%
[5]; 1-2 leaf stage, 11 days old, 0.25 lb ai/acre, 3 DAT
  Percent Control: 70%
[5]; 1-2 leaf stage, 11 days old, 0.25 lb ai/acre, 7 DAT
  Percent Control: 50%
[5]; 1-2 leaf stage, 11 days old, 0.25 lb ai/acre, 14 DAT
  Percent Control: 20%
[5]; 1-2 leaf stage, 11 days old, 0.25 lb ai/acre, 21 DAT
  Percent Control: 5%
[5]; 1-2 leaf stage, 11 days old, 0.375 lb ai/acre, 1 DAT
  Percent Control: 50%
[5]; 1-2 leaf stage, 11 days old, 0.375 lb ai/acre, 3 DAT
  Percent Control: 70%
[5]; 1-2 leaf stage, 11 days old, 0.375 lb ai/acre, 7 DAT
  Percent Control: 50%
[5]; 1-2 leaf stage, 11 days old, 0.375 lb ai/acre, 14 DAT
  Percent Control: 20%
[5]; 1-2 leaf stage, 11 days old, 0.375 lb ai/acre, 21 DAT
  Percent Control: 10%
[5]; 3-4 leaf stage, 1-2 tillers, 14 days old, 0.125 lb ai/acre, 1 DAT
  Percent Control: 25%
[5]; 3-4 leaf stage, 1-2 tillers, 14 days old, 0.125 lb ai/acre, 3 DAT
  Percent Control: 25%
[5]; 3-4 leaf stage, 1-2 tillers, 14 days old, 0.125 lb ai/acre, 7 DAT
  Percent Control: 30%
[5]; 3-4 leaf stage, 1-2 tillers, 14 days old, 0.125 lb ai/acre, 14 DAT
  Percent Control: 10%
[5]; 3-4 leaf stage, 1-2 tillers, 14 days old, 0.125 lb ai/acre, 21 DAT
  Percent Control: 5%
[5]; 3-4 leaf stage, 1-2 tillers, 14 days old, 0.25 lb ai/acre, 1 DAT
  Percent Control: 25%
[5]; 3-4 leaf stage, 1-2 tillers, 14 days old, 0.25 lb ai/acre, 3 DAT
  Percent Control: 25%
[5]; 3-4 leaf stage, 1-2 tillers, 14 days old, 0.25 lb ai/acre, 7 DAT
  Percent Control: 30%
[5]; 3-4 leaf stage, 1-2 tillers, 14 days old, 0.25 lb ai/acre, 14 DAT
  Percent Control: 12%
[5]; 3-4 leaf stage, 1-2 tillers, 14 days old, 0.25 lb ai/acre, 21 DAT
  Percent Control: 5%
[5]; 3-4 leaf stage, 1-2 tillers, 14 days old, 0.375 lb ai/acre, 1 DAT
  Percent Control: 20%
[5]; 3-4 leaf stage, 1-2 tillers, 14 days old, 0.375 lb ai/acre, 3 DAT
  Percent Control: 20%
[5]; 3-4 leaf stage, 1-2 tillers, 14 days old, 0.375 lb ai/acre, 7 DAT
  Percent Control: 22%
[5]; 3-4 leaf stage, 1-2 tillers, 14 days old, 0.375 lb ai/acre, 14 DAT
  Percent Control: 0%
[5]; 3-4 leaf stage, 1-2 tillers, 14 days old, 0.375 lb ai/acre, 21 DAT
  Percent Control: 0%
